The target of assay [1] is Sigma intracellular receptor 2 (Homo sapiens, UniProt Q5BJF2). In words: Displacement of [3H]-pentazocine from human Sigma 2 receptor at 10 uM by cell-based radioligand binding assay.
The next assay has as its target Histamine H1 receptor (Homo sapiens, UniProt P35367). In words: Binding affinity to H1 receptor (unknown origin) assessed as inhibition constant.
In assay [2] the target is 5-hydroxytryptamine receptor 2B (Homo sapiens, UniProt P41595). In words: Displacement of [3H]-LSD from human 5-HT2B receptor at 10 uM by cell-based radioligand binding assay.
The target in assay [3] is Sodium-dependent noradrenaline transporter (Homo sapiens, UniProt P23975). In words: Binding affinity to NET receptor (unknown origin) assessed as inhibition constant.
The target of another assay is D(2) dopamine receptor (Homo sapiens, UniProt P14416). Briefly: Displacement of [3H]-N-Methylspiperone from human D2 receptor at 10 uM by cell-based radioligand binding assay. (In general: Displacement assays read how much labelled ligand stays bound in the presence of the test substance.)
The target in the next assay is T1, D(4) dopamine receptor (Homo sapiens, UniProt P21917).
T1 sequence (P21917 whole entry): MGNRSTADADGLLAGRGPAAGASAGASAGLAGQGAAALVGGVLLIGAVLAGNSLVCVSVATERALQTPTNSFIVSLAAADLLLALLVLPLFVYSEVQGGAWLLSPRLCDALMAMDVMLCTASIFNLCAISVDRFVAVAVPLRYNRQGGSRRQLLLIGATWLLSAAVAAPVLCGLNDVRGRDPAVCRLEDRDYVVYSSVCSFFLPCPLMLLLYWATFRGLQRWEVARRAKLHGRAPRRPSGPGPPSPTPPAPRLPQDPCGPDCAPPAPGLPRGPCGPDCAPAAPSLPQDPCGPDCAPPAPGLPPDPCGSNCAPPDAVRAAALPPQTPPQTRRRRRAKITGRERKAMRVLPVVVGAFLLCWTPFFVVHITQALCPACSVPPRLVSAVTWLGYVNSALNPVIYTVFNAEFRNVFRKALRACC
In words: Displacement of [3H]-N-methylspiperone from human D4 receptor at 10 uM by cell-based radioligand binding assay.

Assay [4] concerns the target Sigma non-opioid intracellular receptor 1 (Homo sapiens, UniProt Q99720). Briefly: Displacement of [3H]-pentazocine from human Sigma 1 receptor at 10 uM by cell-based radioligand binding assay.
Another assay deals with D(3) dopamine receptor (Homo sapiens, UniProt P35462). In words: Displacement of [3H]-N-Methylspiperone from human D3 receptor at 10 uM by cell-based radioligand binding assay.
Assay [5] deals with T2, Cannabinoid receptor 1 (Homo sapiens, UniProt P21554). Briefly: Agonist activity at CB1 receptor in MDA-MB-231 cells at 300 uM by FLIPR assay. Format: functional, cell-based.
For assay [6], the target named is Kappa-type opioid receptor (Homo sapiens, UniProt P41145). Briefly: Displacement of [3H]-U69593 human KOR receptor at 10 uM by cell-based radioligand binding assay.
In assay [7] the target is T2, Cannabinoid receptor 1. Briefly: Agonist activity at CB1 receptor in MDA-MB-231 cells at 100 to 300 uM by FLIPR assay. Format: functional, cell-based. As to conditions: filed as agonist, dose 100-300 µM.
Assay [8] has as its target T2, Cannabinoid receptor 1. In words: Agonist activity at CB1 receptor in human MDA-MB-231 cells by FLIPR assay. Type of assay: functional, cell-based.
Another assay has as its target Translocator protein (Homo sapiens, UniProt P30536). In words: Displacement of [3H]-PK11195 from human PBR receptor at 10 uM by cell-based radioligand binding assay.
The nature of assay [9]: Activation of GIRK channel (unknown origin) assessed as increase in fluorescence analysis. Details: species or system Homo sapiens.

Activity calls are given as the source filed them. The calls are words filed in the database; no cut-off is given here.

The Ki is a measure of affinity in units of concentration, obtained from inhibition or displacement. By EC50 is commonly meant the concentration needed to bring the measured effect to its halfway point.

Chain of D(2) dopamine receptor (P14416 whole entry): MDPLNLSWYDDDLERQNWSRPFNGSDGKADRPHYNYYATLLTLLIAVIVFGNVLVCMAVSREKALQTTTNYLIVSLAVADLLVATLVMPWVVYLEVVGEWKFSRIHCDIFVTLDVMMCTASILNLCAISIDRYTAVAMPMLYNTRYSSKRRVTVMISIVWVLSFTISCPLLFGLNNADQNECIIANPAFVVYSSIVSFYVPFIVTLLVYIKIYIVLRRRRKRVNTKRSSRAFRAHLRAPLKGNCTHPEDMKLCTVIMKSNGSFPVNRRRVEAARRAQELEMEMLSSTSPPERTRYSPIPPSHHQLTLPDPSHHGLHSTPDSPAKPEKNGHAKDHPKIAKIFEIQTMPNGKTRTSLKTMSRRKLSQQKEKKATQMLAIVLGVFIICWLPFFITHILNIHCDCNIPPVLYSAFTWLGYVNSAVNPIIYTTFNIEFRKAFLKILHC
Chain of 5-hydroxytryptamine receptor 2B (P41595 whole entry): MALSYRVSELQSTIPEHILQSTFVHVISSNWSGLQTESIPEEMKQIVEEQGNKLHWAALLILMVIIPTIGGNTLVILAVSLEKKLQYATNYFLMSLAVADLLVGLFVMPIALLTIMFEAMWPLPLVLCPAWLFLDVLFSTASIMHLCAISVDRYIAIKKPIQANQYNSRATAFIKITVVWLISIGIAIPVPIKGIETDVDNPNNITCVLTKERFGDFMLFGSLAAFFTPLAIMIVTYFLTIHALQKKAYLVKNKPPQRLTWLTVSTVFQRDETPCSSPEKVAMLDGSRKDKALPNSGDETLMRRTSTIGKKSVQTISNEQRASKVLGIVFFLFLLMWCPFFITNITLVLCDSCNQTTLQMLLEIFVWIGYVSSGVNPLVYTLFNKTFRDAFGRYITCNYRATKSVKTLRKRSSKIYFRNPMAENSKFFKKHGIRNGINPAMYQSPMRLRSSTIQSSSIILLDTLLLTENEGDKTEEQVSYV
Chain of Sigma intracellular receptor 2 (Q5BJF2 whole entry): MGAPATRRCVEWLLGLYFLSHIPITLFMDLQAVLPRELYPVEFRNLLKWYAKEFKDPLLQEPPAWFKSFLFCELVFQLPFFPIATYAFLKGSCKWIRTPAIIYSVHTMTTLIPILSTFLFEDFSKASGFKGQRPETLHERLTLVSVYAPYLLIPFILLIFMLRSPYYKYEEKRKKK
T2 sequence (P21554 whole entry): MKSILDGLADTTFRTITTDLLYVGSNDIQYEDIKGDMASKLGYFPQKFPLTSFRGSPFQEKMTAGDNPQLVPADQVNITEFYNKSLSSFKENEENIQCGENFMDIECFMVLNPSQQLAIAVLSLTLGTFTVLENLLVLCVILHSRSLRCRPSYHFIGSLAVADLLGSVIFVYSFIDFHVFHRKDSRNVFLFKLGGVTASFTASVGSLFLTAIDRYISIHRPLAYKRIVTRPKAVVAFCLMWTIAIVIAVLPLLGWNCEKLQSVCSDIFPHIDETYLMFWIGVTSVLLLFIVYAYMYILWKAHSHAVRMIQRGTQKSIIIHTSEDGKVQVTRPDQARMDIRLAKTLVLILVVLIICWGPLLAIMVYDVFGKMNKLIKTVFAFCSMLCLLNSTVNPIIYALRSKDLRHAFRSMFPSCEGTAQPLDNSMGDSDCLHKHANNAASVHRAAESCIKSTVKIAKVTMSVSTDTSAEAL
Chain of Translocator protein (P30536 whole entry): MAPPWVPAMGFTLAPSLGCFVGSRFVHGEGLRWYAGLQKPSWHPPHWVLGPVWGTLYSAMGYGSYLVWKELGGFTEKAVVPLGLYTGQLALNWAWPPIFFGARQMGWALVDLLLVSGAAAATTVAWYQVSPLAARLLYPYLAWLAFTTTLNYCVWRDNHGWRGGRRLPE
Chain of Sigma non-opioid intracellular receptor 1 (Q99720 whole entry): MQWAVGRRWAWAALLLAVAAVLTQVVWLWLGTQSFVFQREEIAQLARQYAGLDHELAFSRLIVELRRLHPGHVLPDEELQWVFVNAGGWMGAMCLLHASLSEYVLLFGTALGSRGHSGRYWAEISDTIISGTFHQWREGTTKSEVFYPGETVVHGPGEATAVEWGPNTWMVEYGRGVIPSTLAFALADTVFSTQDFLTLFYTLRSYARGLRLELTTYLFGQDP
Chain of Sodium-dependent noradrenaline transporter (P23975 whole entry): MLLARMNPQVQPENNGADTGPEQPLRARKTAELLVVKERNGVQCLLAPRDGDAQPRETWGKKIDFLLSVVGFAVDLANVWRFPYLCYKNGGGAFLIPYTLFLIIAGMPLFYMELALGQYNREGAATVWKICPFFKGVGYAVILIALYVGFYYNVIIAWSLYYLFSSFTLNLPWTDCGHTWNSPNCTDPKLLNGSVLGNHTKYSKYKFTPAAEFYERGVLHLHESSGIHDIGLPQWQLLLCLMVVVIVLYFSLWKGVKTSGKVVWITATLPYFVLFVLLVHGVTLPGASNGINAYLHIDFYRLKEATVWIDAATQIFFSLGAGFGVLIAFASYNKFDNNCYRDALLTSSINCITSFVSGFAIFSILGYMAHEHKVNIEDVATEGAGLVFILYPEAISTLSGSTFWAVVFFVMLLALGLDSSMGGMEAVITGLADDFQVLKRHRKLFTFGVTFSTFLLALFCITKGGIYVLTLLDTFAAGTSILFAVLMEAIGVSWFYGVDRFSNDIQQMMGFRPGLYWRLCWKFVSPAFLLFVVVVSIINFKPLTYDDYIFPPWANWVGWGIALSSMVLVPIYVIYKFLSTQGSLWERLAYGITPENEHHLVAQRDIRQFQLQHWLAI
Chain of Kappa-type opioid receptor (P41145 whole entry): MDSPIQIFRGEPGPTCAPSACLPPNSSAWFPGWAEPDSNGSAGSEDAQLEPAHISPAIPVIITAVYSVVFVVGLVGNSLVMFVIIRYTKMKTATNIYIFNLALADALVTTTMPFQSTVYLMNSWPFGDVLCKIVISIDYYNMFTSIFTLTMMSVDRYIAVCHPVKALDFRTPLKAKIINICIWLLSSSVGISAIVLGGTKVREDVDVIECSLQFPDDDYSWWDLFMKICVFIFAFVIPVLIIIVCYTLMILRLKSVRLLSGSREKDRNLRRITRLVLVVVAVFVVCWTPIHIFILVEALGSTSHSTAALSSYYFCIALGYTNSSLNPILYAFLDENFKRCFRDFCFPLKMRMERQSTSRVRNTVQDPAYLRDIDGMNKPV
Chain of Histamine H1 receptor (P35367 whole entry): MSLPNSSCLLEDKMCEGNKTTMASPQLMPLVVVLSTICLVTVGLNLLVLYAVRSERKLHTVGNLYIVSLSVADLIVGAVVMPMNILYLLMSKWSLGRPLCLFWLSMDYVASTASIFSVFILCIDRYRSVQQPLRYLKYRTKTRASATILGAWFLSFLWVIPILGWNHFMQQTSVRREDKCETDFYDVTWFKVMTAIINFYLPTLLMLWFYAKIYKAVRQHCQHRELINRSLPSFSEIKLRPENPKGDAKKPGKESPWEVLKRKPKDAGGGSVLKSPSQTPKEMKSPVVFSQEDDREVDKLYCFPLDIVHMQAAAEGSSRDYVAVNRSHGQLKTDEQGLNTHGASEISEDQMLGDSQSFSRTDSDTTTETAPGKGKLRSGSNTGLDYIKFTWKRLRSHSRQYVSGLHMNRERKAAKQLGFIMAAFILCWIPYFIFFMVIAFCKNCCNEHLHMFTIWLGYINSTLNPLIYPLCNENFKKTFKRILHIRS
Chain of D(3) dopamine receptor (P35462 whole entry): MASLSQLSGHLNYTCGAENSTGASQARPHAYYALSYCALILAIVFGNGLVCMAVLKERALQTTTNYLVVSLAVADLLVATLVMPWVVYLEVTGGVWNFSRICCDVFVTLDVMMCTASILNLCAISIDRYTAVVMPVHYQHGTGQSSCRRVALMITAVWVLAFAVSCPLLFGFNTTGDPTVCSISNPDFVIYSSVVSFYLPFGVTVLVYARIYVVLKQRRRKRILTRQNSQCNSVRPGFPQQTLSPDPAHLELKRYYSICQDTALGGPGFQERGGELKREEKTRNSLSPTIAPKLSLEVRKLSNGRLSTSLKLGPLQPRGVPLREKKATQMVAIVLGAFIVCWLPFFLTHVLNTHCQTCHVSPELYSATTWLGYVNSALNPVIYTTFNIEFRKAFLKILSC

`C=C(C)[C@H]1CCC(C)=C[C@@H]1c1c(O)cc(CCCCC)cc1OCCCCOc1cc(CCCCC)cc(O)c1[C@@H]1C=C(C)CC[C@H]1C(=C)C` displayed a Ki in assay [1] of 5500 nM.

With `C=C(C)[C@@H]1CCC(C)=C[C@H]1c1c(OC)cc(CCCCC)cc1OCCCCOc1cc(CCCCC)cc(OC)c1[C@@H]1C=C(C)CC[C@H]1C(=C)C`, the Ki at Histamine H1 receptor came to 600 nM.

For `C=C(C)[C@H]1CCC(C)=C[C@@H]1c1c(O)cc(CCCCC)cc1OCCCCCOc1cc(CCCCC)cc(O)c1[C@@H]1C=C(C)CC[C@H]1C(=C)C`, the Ki in assay [1] worked out at 6900 nM; in assay [2], 2100 nM.

With `C=C(C)[C@@H]1CCC(C)=C[C@H]1c1c(O)cc(CCCCC)c2c1OCC2`, the Ki in [3] was 5700 nM; in assay [2] it was 3300 nM; on D(2) dopamine receptor, 400 nM; on D(4) dopamine receptor, 500 nM; in assay [4], 1800 nM; at D(3) dopamine receptor it was 400 nM.

On to `C=C(C)[C@@H]1CCC(C)=C[C@H]1c1c(O)cc(CCCCC)cc1O`, for which, on Cannabinoid receptor 1 [5], the result was inactive.

`C=C(C)[C@@H]1CCC(C)=C[C@H]1c1c(O)cc(CCCCC)cc1OCCCCCCCCCCCCOc1cc(CCCCC)cc(O)c1[C@@H]1C=C(C)CC[C@H]1C(=C)C`: the figures for the Ki (in assay [2]; on D(2) dopamine receptor; in assay [6]) were 2400 nM, > 10000 nM and 1700 nM, respectively.

For `C=C(C)[C@H]1CCC(C)=C[C@@H]1c1c(O)cc(CCCCC)cc1OCCOc1cc(CCCCC)cc(O)c1[C@@H]1C=C(C)CC[C@H]1C(=C)C`, the Ki in assay [1] is 800 nM; in assay [2] it was 1700 nM.

`C=C(C)[C@@H]1CCC(C)=C[C@H]1c1c(OC)cc(CCCCC)cc1OCCCOc1cc(CCCCC)cc(OC)c1[C@@H]1C=C(C)CC[C@H]1C(=C)C`: the outcome at Cannabinoid receptor 1 [7] was Active. Further, the results for the Ki (in [1]; on Translocator protein) were 3400 nM and 2700 nM, respectively. The molecule further displayed an EC50 at Cannabinoid receptor 1 [8] of 42200 nM.

`C=C(C)[C@@H]1CCC(C)=C[C@H]1c1c(OC)cc(CCCCC)cc1OCCOCCOCCOCCOc1cc(CCCCC)cc(OC)c1[C@@H]1C=C(C)CC[C@H]1C(=C)C` returned a Ki in assay [1] of 8100 nM.

As to `Cn1ccc2cc3c(cc21)CCN3C(=O)Nc1cccnc1`, in assay [2], the Ki stood at 4.7 nM.

`C=C(C)[C@H]1CCC(C)=C[C@@H]1c1c(OC)cc(CCCCC)cc1OCCCCCCCCCCCCOc1cc(CCCCC)cc(OC)c1[C@H]1C=C(C)CC[C@@H]1C(=C)C`: the Ki in [2] worked out at 6600 nM; at Translocator protein, 900 nM.

Consider `C=C(C)[C@H]1CCC(C)=C[C@@H]1c1c(O)cc(CCCCC)cc1OCCCCCCCCOc1cc(CCCCC)cc(O)c1[C@@H]1C=C(C)CC[C@H]1C(=C)C`, for which the Ki in assay [1] is 1900 nM; in assay [2], 4500 nM; in assay [4], 1900 nM.

Turning to `C=C(C)[C@H]1CCC(C)=C[C@@H]1c1c(OC)cc(CCCCC)cc1OCCCCCCCOc1cc(CCCCC)cc(OC)c1[C@H]1C=C(C)CC[C@@H]1C(=C)C`, the inhibition constant (Ki) in assay [1] was determined as 4700 nM.

`Cc1c(C(=O)c2cccc3ccccc23)c2cccc3c2n1[C@H](CN1CCOCC1)CO3` [WIN-552122]: the EC50 in [9] is 13100 nM.

Molecule `C=C(C)[C@H]1CCC(C)=C[C@@H]1c1c(O)cc(CCCCC)cc1OCCCCCCOc1cc(CCCCC)cc(O)c1[C@@H]1C=C(C)CC[C@H]1C(=C)C` showed an inhibition constant Ki in assay [1] of 700 nM.

Turning to `C=C(C)[C@@H]1CCC(C)=C[C@H]1c1c(OC)cc(CCCCC)cc1OCCCCCCOc1cc(CCCCC)cc(OC)c1[C@@H]1C=C(C)CC[C@H]1C(=C)C`, the Ki in assay [1] was determined as 5500 nM; in assay [2] it was 8700 nM.

As for `C=C(C)[C@@H]1CCC(C)=C[C@H]1c1c(OC)cc(CCCCC)cc1OCCCCCCCCOc1cc(CCCCC)cc(OC)c1[C@@H]1C=C(C)CC[C@H]1C(=C)C`, the Ki in assay [1] is 2700 nM; in assay [2], > 10000 nM.

Turning to `C=C(C)[C@@H]1CCC(C)=C[C@H]1c1c(OC)cc(CCCCC)cc1OCCCCCOc1cc(CCCCC)cc(OC)c1[C@@H]1C=C(C)CC[C@H]1C(=C)C`, on Cannabinoid receptor 1 [7], the outcome was Active. Also, at Cannabinoid receptor 1 [8], the EC50 came out at 40000 nM.

For the molecule `C=C(C)[C@@H]1CCC(C)=C[C@H]1c1c(O)cc(CCCCC)cc1OCCCCCCCOc1cc(CCCCC)cc(O)c1[C@@H]1C=C(C)CC[C@H]1C(=C)C`, the Ki in assay [2] amounted to 1800 nM; at D(2) dopamine receptor, 600 nM.

For the origin of these results see ChEMBL document CHEMBL6153090.
